We go through two molecules from patent publication US6607885B1, “Method for high-density microarray medicated gene expression profiling” (priority 1999, dated 2003).

Format in all cases: cell-based, Escherichia coli
Test [1] relates to E. coli DM803 (lexAind). As to the kind of experiment: MMC exposure, gene expression profile of DM803 (lexAind). As to conditions: MMC for 40 min. How it is done: (§1) Strains E. coli strain, MG1655, was used to determine the gene expression profile of E. coli in response to a MMC challenge. Two isogenic E. coli strains (Mount et al, J. Bacteriol. 112:886-893 (1972)), DM800 (lexA^+), used as control displaying a normal response to DNA damage, and DM803 (lexA^ind), a strain unable to mount the predominant “SOS” response to DNA damage, were compared using comprehensive gene expression profiling.
(§2) MMC experiment MG1655 cells were grown in LB overnight with aeration. The overnight cultures were diluted 100 fold in LB to final volume of 500 mL and grown at 37° C. to exponential phase. 200 mL of culture was treated with MMC to the final concentration of 250 ng/mL. Another 200 mL of culture were mock treated without MMC for comparison. Cells were harvested at 15 min and 40 min for MG1655 strain. With DM800 and DM803 stains, cells, cultured in an identical manner, were harvested after 40 min exposure. RNA was isolated and gene expression profile was analyzed as shown in Examples 1 and 2.

For test [2], the system named is E. coli strain MG1655. As to the kind of experiment: MMC exposure, gene expression profile of MG1655. On the procedure: as §1, §2
The subject of test [3] is E. coli DM800 (lexA+). As to the kind of experiment: MMC exposure, gene expression profile of DM800 (lexA+). The settings on record: MMC for 40 min. How it is done:
as §1, §2

Test [4] has as its system E. coli MG1655. As to the kind of experiment: IPTG induction, micro-array gene expression profiling. How it is done:
E. coli MG1655 was cultured with aeration in either the minimal medium, M9 (Miller, J. H., Experiments in Molecular Genetics, Cold Spring Harbor (1972)), supplemented with 0.4% glucose or in the rich medium, LB (Miller, J. H., Experiments in Molecular Genetics, Cold Spring Harbor (1972)), at 37° C. The overnight culture was diluted 250 fold into fresh medium and aerated by shaking at 37° C. Samples of the minimal medium culture were harvested at A600=0.40 (exponential phase) and 1.6 (transition to stationary phase) prior to RNA isolation. An IPTG induction (Miller, J. H., Experiments in Molecular Genetics, Cold Spring Harbor (1972)) was performed to examine the specificity with which it effects gene expression. A culture grown overnight in LB at 37° C. was diluted 250 fold into fresh LB and aerated at 37° C. When the culture achieved an appropriate density (A600=0.40), it was split. To one portion was added IPTG to a final concentration of 1 mM; the untreated sample served as a control. Incubation of both samples was continued with aeration at 37° C. for another 15 min (A600=0.45 for both cultures) before RNA isolation was initiated.
RNA Isolation. An equivalent volume of shaved ice was added to 50 mL samples which were pelleted immediately in a refrigerated centrifuge by spinning at 10,410×g for 2 min. Each resultant pellet was resuspended in a mixture containing 100 μL of Tris HCl (10 mM, pH 8.0) and 350 μL of β-mercaptoethanol supplemented RLT buffer [Qiagen RNeasy Mini Kit, Valencia, Calif.]. The cell suspension was added to a chilled 2 mL screwed-capped microfuge tube containing 100 μL of 0.1 mm zirconia/silica beads (Biospec Product Inc., Bartlesville, Okla.). The cells were broken by agitation at room temperature for 25 sec with a Mini-Beadbeater™ (Biospec Products Inc., Bartlesville, Okla.). Debris was pelleted by centrifugation for 3 min at 16,000×g and 4° C.; the resultant supernatant was mixed with 250 μL of ethanol. This mixture was loaded onto a column from the Qiagen RNeasy Mini Kit. RNA isolation was completed using the protocol supplied with this kit. Incubation for 1 hr. at 37° C. in 40 mM Tris pH 8.0, 10 mM NaCl, 6 mM MgCl2 with RNase free RQ1 DNase (1 unit/μL, Promega, Madison, Wis.) digested any genomic DNA contaminating the RNA preparation. The digestion products were purified by a second passage through the RNeasy protocol (Qiagen, Valencia, Calif.). The product was eluted from the column in 50 μL RNAse-free water prior to determining sample concentration by an A260 reading. RNA preparations were stored frozen at either −20 or −80° C.
Synthesis of fluorescent cDNA from total RNA. Six microgram of RNA template and 12 μg of random hexamer primers (Operon Technologies, Inc., Alameda, Calif.) were diluted with double distilled (dd) water to a volume of 22 μL. Annealing was accomplished by incubation at 70° C. for 10 min followed by 10 min at room temperature. In order were added: 8 μL of 5×SuperScript II reaction buffer (Life Technologies, Inc., Gaithersberg, Md.), 4 μL of 0.1 M DTT, 2 μL of the dNTP mix (2 mM dATP, 2 mM dGTP, 2 mM TTP, 1 mM dCTP), 2 μL of 0.5 mM Cy3- or Cy5-dCTP (Amersham Pharmacia Biotech, Arlington Heights, Ill.), and 2 μL of SuperScript II reverse transcriptase ([…], Life Technologies Inc., Gaithersberg, Md.). DNA synthesis proceeded at 42° C. for 2.5 hr. before the reaction was terminated by heating at 94° C. for 5 min. Alkaline hydrolysis of the RNA templates was achieved by adding 2 μL of 5M NaOH followed by incubation at 37° C. for 10 min. Hydrolysis was terminated by the sequential addition of 3 μL of 5M HCl and 5 μL of 1M Tris-HCl, pH 6.8. The labeled cDNA was purified with a PCR purification kit (Qiagen, Valencia, Calif.), dried in a speed vacuum and stored at −20° C. Labeling efficiency was monitored using either A550, for Cy3 incorporation, or A650, for Cy5 labeling, to A260 ratios.
Hybridization and washing. […]

In the case of `CO[C@@]12[C@H](COC(N)=O)C3=C(C(=O)C(C)=C(N)C3=O)N1C[C@@H]1N[C@@H]12` [MMC, mitomycin C], in test [1], the “induction of SOS responsive genes, including lexA” value was “not induced”; the “induction of dicB, dicC, sdiA, cheW, motA, cycA, fadL, chaC, codB and btuC” value was “greater than 2 fold”. The “number of genes with expression elevated greater than 2 fold relative to the control” value in test [2] (40 min exposure, MMC 250 ng/mL) amounted to 40 genes. In test [2] (40 min exposure, recN, dinI, sulA, lexA, recA, uvrA, dinD, priC, umuC, mioC, uvrB, ruvA, xseA), the “number of stress response genes induced more than 2 fold” value came out at 13 genes. Also, the SOS response result in test [2] (cells harvested at 15 min post exposure, MMC 250 ng/mL) is given as “very little”. Further, in test [3], the “induction of SOS responsive genes” value is recorded as “greater than 2 fold”; the “induction of dicB, dicC, sdiA, cheW, motA, cycA, fadL, chaC, codB and btuC” value is “not induced”.

On to `CC(C)S[C@@H]1O[C@H](CO)[C@H](O)[C@H](O)[C@H]1O` [IPTG, isopropylthiogalactoside], for which, in test [4] (1 mM IPTG for 15 min), the “number of genes whose expression increased by a factor of more than 2” value is listed as 8 genes and the “two-fold or greater repression of arrayed genes” value is listed as “not observed”. The “fold IPTG induction of b0956/ycbG” value in test [4] (gene b0956/ycbG (hydrogenase?), 1 mM IPTG, 15 min, LB, 37° C.) is recorded as 2.5 fold. In test [4] (gene b1783/yeaG, 1 mM IPTG, 15 min, LB, 37° C.), the “fold IPTG induction of b1783/yeaG” value is 3.6 fold. For the same molecule, the “fold IPTG induction of b2324” value in test [4] (gene b2324 (peptidase?), 1 mM IPTG, 15 min, LB, 37° C.) is 5.3 fold. For the same molecule, the “fold IPTG induction of lacA” value in test [4] (gene lacA (thiogalactoside acyltransferase), 1 mM IPTG, 15 min, LB, 37° C.) came to 36 fold. Moreover, in test [4] (gene lacY (galactoside permease), 1 mM IPTG, 15 min, LB, 37° C.), the “fold IPTG induction of lacY” value came out at 14 fold. In addition, in test [4] (gene lacZ (galactosidase), 1 mM IPTG, 15 min, LB, 37° C.), the “fold IPTG induction of lacZ” value was found to be 29 fold. In test [4] (gene melA (galactosidase), 1 mM IPTG, 15 min, LB, 37° C.), the “fold IPTG induction of melA” value was determined as 2.9 fold. Also, the “fold IPTG induction of uxaA” value in test [4] (gene uxaA (altronate hydrolase), 1 mM IPTG, 15 min, LB, 37° C.) is listed as 4.0 fold.
